{
  "source": "patent EP4389827A1",
  "about": "“AMINOGLYCOSIDE-LINKED PHOTOSENSITIZERS” (Centre National de la Recherche Scientifique, priority 2022, dated 2024)",
  "key": {"[1]": {"test_system": "A. baumannii DSM30011", "experiment": "Minimal inhibitory concentration (EUCAST), with or without 660 nm irradiation", "format": "cell-based, Acinetobacter baumannii", "conditions": "Acinetobacter baumannii, DSM30011, light or radiation study, 18 h", "protocol": "(§1) Acinetobacter baumannii DSM30011, Bacillus subtilis 168, Pseudomonas aeruginosa PA14, P. aeruginosa PAO1, Staphylococcus aureus Mu50, S. aureus Newman and S. aureus USA300 were all grown in MHB-CA at 37°C with an agitation of 180 rpm. Candida albicans SC5314 was grown in yeast extract peptone dextrose broth at 35°C with an agitation of 180 rpm.\n(§2) Minimal inhibitory concentrations (MICs) for selected bacteria were investigated according to the EUCAST guidelines. Serial dilutions of the compounds, photosensitizers and aminoglycosides were made in MHB-CA in 384-well plates. Stationary-phase cells were diluted in MHB-CA to have a final concentration of 5.5 × 10^5 CFU/mL. Samples were incubated in the dark for 20 minutes at 37°C and either irradiated at 660 nm for 30 minutes with a LED device or kept in the dark. Irradiated samples received a total of 168 mJ/mm^2. Plates were then incubated at 37°C for 18 hours and MICs were evaluated visually. Triplicates were done and the synergy, or fractional inhibitory concentration (FIC), was calculated according to Doern et al., 2014: FIC = (MIC of AB)/(MIC of A) + (MIC of AB)/(MIC of B) [formula]"}, "[2]": {"test_system": "C. albicans SC5314", "experiment": "Minimal inhibitory concentration, with or without 660 nm irradiation", "format": "cell-based", "conditions": "Candida albicans, SC5314, light or radiation study, 18 h", "protocol": "as §1, §2"}, "[3]": {"test_system": "S. aureus Newman", "experiment": "Minimal inhibitory concentration (EUCAST), with or without 660 nm irradiation", "format": "cell-based, Staphylococcus aureus", "conditions": "Staphylococcus aureus, NEWMAN, light or radiation study, 18 h", "protocol": "as §1, §2"}, "[4]": {"test_system": "S. aureus Newman", "experiment": "Antibacterial photodynamic therapy on biofilm cells", "format": "cell-based, Staphylococcus aureus", "conditions": "- irradiation", "source_text": "(§3) Compounds Neo-Ce6 and Tobra-Ce6 caused strong drop in survival for biofilms of A. baumannii […], P. aeruginosa species and S. aureus Mu50. […] Tobra-Ce6 had its strongest effect on A. baumannii DSM30011 with more than 4 log10 CFU/mL drop in survival and a drop of 1.7 log10 CFU/mL in P. aeruginosa PA14. Table 2: aPDT results for biofilm cells expressed in drop in the log10 CFU/mL compared to controls."}, "[5]": {"test_system": "S. aureus Mu50", "experiment": "Antibacterial photodynamic therapy on biofilm cells", "format": "cell-based, Staphylococcus aureus", "conditions": "- irradiation", "source_text": "as §3"}, "[6]": {"test_system": "S. aureus USA300", "experiment": "Antibacterial photodynamic therapy on biofilm cells", "format": "cell-based, Staphylococcus aureus", "conditions": "- irradiation", "source_text": "as §3"}, "[7]": {"test_system": "A. baumannii DSM30011", "experiment": "Antibacterial photodynamic therapy on biofilm cells", "format": "cell-based, Acinetobacter baumannii", "conditions": "- irradiation", "source_text": "as §3"}, "[8]": {"test_system": "S. aureus Mu50", "experiment": "Minimal inhibitory concentration (EUCAST), with or without 660 nm irradiation", "format": "cell-based", "conditions": "Staphylococcus aureus, MU50, light or radiation study, 18 h", "protocol": "as §1, §2"}, "[9]": {"test_system": "S. aureus USA300", "experiment": "Minimal inhibitory concentration (EUCAST), with or without 660 nm irradiation", "format": "cell-based", "conditions": "Staphylococcus aureus, USA300, light or radiation study, 18 h, aminoglycoside alone, irradiation state not given", "protocol": "as §1, §2"}, "[10]": {"test_system": "B. subtilis 168", "experiment": "Minimal inhibitory concentration (EUCAST), with or without 660 nm irradiation", "format": "cell-based, Bacillus subtilis", "conditions": "Bacillus subtilis, 168, light or radiation study, 18 h", "protocol": "as §1, §2"}, "[11]": {"test_system": "S. aureus Newman", "experiment": "Antibacterial photodynamic therapy on planktonic cells (CFU count)", "format": "cell-based, Staphylococcus aureus", "conditions": "non-irradiated samples (Figure 3d)", "protocol": "as §1\n(§4) Cells were brought to stationary phase by incubating them in MHB-CA for at least 18 hours at 37°C with 180 rpm and diluted to an optical density of 1.0 just before the experiment. Cells were incubated for 20 minutes with either the compounds, photosensitizers alone, or aminoglycosides alone. Unless stated otherwise, a concentration of 10 µM was used for all experiments and samples were irradiated for 30 minutes at 660 nm with the Solis-660C lamp from ThorLabs, receiving a total of 5 J/mm^2. After illumination, cells were washed with phosphate-buffered saline (PBS) 1X, serially diluted and plated on Mueller-Hinton agar. The next day, colony forming units (CFUs) were counted."}, "[12]": {"test_system": "S. aureus Mu50", "experiment": "Antibacterial photodynamic therapy on planktonic cells (CFU count)", "format": "cell-based, Staphylococcus aureus", "conditions": "non-irradiated samples (Figure 3b)", "protocol": "as §1, §4"}, "[13]": {"test_system": "S. aureus USA300 persister cells", "experiment": "Antibacterial photodynamic therapy on persister cells", "format": "cell-based, Staphylococcus aureus", "conditions": "persister cells (6 hours, 2 mM neomycin); aPDT at 10 µM, 5 J/mm^2 (Figure 6a)", "protocol": "Persister plateau and AG concentration varied from one species to another. In S. aureus USA300, a stable plateau was obtained following 6 hours of incubation with 2 mM of neomycin. […] This control is crucial to make sure that a persister state has been achieved. […] As there are no significant differences between irradiated and non-irradiated samples, however, the production of singlet oxygen may not be the factor leading to cell death. In S. aureus Newman, cells were treated for 24 hours with 1 mM of neomycin. […] Although this synergy does exist, like in S. aureus USA300, there is no significant difference in survival for irradiated and non-irradiated samples, except for Ce6."}, "[14]": {"test_system": "K. pneumoniae LM21", "experiment": "Minimal inhibitory concentration (EUCAST), with or without 660 nm irradiation", "format": "cell-based", "conditions": "Klebsiella pneumoniae, LM21, light or radiation study, 18 h", "protocol": "as §2"}, "[15]": {"test_system": "E. coli KanR", "experiment": "Minimal inhibitory concentration (EUCAST), with or without 660 nm irradiation", "format": "cell-based", "conditions": "Escherichia coli, light or radiation study, 18 h", "protocol": "as §2"}, "[16]": {"test_system": "E. coli pET-29", "experiment": "Minimal inhibitory concentration (EUCAST), with or without 660 nm irradiation", "format": "cell-based", "conditions": "Escherichia coli, PET29, light or radiation study, 18 h; aminoglycoside alone, irradiation state not given", "protocol": "as §2"}, "[17]": {"test_system": "P. aeruginosa PAO1", "experiment": "Antibacterial photodynamic therapy on biofilm cells", "format": "cell-based, Pseudomonas aeruginosa", "conditions": "- irradiation", "source_text": "as §3"}, "[18]": {"test_system": "P. aeruginosa PA14", "experiment": "Antibacterial photodynamic therapy on biofilm cells", "format": "cell-based, Pseudomonas aeruginosa", "conditions": "- irradiation", "source_text": "as §3"}, "[19]": {"test_system": "P. aeruginosa PAO1", "experiment": "Minimal inhibitory concentration (EUCAST), with or without 660 nm irradiation", "format": "cell-based, Pseudomonas aeruginosa", "conditions": "Pseudomonas aeruginosa, PAO1, light or radiation study, 18 h", "protocol": "as §1, §2"}, "[20]": {"test_system": "P. aeruginosa PA14", "experiment": "Minimal inhibitory concentration (EUCAST), with or without 660 nm irradiation", "format": "cell-based, Pseudomonas aeruginosa", "conditions": "Pseudomonas aeruginosa, PA14, light or radiation study, 18 h", "protocol": "as §1, §2"}, "[21]": {"test_system": "P. aeruginosa PAO1", "experiment": "Antibacterial photodynamic therapy on planktonic cells (CFU count)", "format": "cell-based", "conditions": "Pseudomonas aeruginosa, PAO1, light or radiation study, aminoglycoside alone, Figure 5d (without irradiation), read-out: drop of survival", "protocol": "as §1, §4"}, "[22]": {"conditions": "aminoglycoside alone, irradiation state not given, read-out: MIC"}},
  "note": "Like-named read-outs stand apart in the source and are kept apart here.",
  "data": [
    {"molecule": "NC[C@@H]1O[C@H](O[C@H]2[C@@H](O)[C@H](O[C@@H]3[C@@H](O)[C@H](N)C[C@H](N)[C@H]3O[C@H]3O[C@H](CN)[C@@H](O)[C@H](O)[C@H]3N)O[C@@H]2CO)[C@H](N)[C@@H](O)[C@@H]1O", "note": "[Neomycin, neomycin]", "values": [
      {"measurement": "MIC", "setting": "[1]", "value": 8, "unit": "µM"},
      {"measurement": "MIC", "setting": "[2]", "value": "> 512", "unit": "µM"},
      {"measurement": "MIC", "setting": "[3]", "value": 8, "unit": "µM"},
      {"measurement": "drop in the log10 CFU/mL compared to controls", "setting": "[4]", "value": -0.07, "unit": "log10 CFU/mL"},
      {"measurement": "drop in the log10 CFU/mL compared to controls", "setting": "[5]", "value": 0.18, "unit": "log10 CFU/mL"},
      {"measurement": "drop in the log10 CFU/mL compared to controls", "setting": "[6]", "value": 0.16, "unit": "log10 CFU/mL"},
      {"measurement": "drop in the log10 CFU/mL compared to controls", "setting": "[7]", "value": 1.33, "unit": "log10 CFU/mL"},
      {"measurement": "MIC", "setting": "[8]", "value": "> 512", "unit": "µM"},
      {"measurement": "MIC", "setting": "[9]", "value": 4, "unit": "µM"},
      {"measurement": "MIC", "setting": "[10]", "value": 0.4, "unit": "µM"},
      {"measurement": "drop in CFUs (in words)", "setting": "[11]", "value": "does not lead to significantly less survival"},
      {"measurement": "drop in CFUs (in words)", "setting": "[12]", "value": "does not lead to significantly less survival"},
      {"measurement": "persister cell survival (in words)", "setting": "[13]", "value": "no significant drop in survival"},
      {"measurement": "MIC", "setting": "[14]", "value": 2, "unit": "µM"},
      {"measurement": "MIC", "setting": "[15]", "value": "> 512", "unit": "µM"},
      {"measurement": "MIC", "setting": "[16]", "value": "128 to 256", "unit": "µM"},
      {"measurement": "drop in the log10 CFU/mL compared to controls", "setting": "[17]", "value": 0.28, "unit": "log10 CFU/mL"},
      {"measurement": "drop in the log10 CFU/mL compared to controls", "setting": "[18]", "value": 0.01, "unit": "log10 CFU/mL"},
      {"measurement": "MIC", "setting": "[19]", "value": 16, "unit": "µM"},
      {"measurement": "MIC", "setting": "[20]", "value": 4, "unit": "µM"}
    ]},
    {"molecule": "NC[C@H]1O[C@H](O[C@H]2[C@H](O)[C@@H](O[C@H]3O[C@H](CO)[C@@H](O)[C@H](N)[C@H]3O)[C@H](N)C[C@@H]2N)[C@H](N)C[C@@H]1O", "note": "[Tobramycin, tobramycin]", "values": [
      {"measurement": "MIC", "setting": "[1]; [22]", "value": "4 to 8", "unit": "µM"},
      {"measurement": "MIC", "setting": "[3]; [22]", "value": 4, "unit": "µM"},
      {"measurement": "drop in the log10 CFU/mL compared to controls", "setting": "[4]", "value": 0.25, "unit": "log10 CFU/mL"},
      {"measurement": "drop in the log10 CFU/mL compared to controls", "setting": "[5]", "value": -0.02, "unit": "log10 CFU/mL"},
      {"measurement": "drop in the log10 CFU/mL compared to controls", "setting": "[6]", "value": 0.26, "unit": "log10 CFU/mL"},
      {"measurement": "log reduction at 10 µM", "setting": "[21]", "value": "~2.3"},
      {"measurement": "drop in the log10 CFU/mL compared to controls", "setting": "[7]", "value": 0.93, "unit": "log10 CFU/mL"},
      {"measurement": "MIC", "setting": "[8]; [22]", "value": "> 512", "unit": "µM"},
      {"measurement": "MIC", "setting": "[9]", "value": 4, "unit": "µM"},
      {"measurement": "drop in the log10 CFU/mL compared to controls", "setting": "[17]", "value": 0.39, "unit": "log10 CFU/mL"},
      {"measurement": "drop in the log10 CFU/mL compared to controls", "setting": "[18]", "value": 0.79, "unit": "log10 CFU/mL"},
      {"measurement": "MIC", "setting": "[19]; [22]", "value": "0.5 to 1", "unit": "µM"},
      {"measurement": "MIC", "setting": "[20]; [22]", "value": "1 to 2", "unit": "µM"}
    ]}
  ]
}
